Measurements published in PubChem BioAssay (NCI).
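Five compound concentrations were applied to cells in 96-well plates for 48 hours; endpoints were derived by simple linear interpolation of the resulting dose-response curve. TGI denotes the concentration required for complete inhibition of growth.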

Experiments:
Experiment in all cases: DTP human tumour cell line panel, 48 h
DLD-1 colon = system: DLD-1 colon
DMS 273 small cell lung = system: DMS 273 small cell lung
HCC-2998 colon = system: HCC-2998 colon
HCT-116 colon = system: HCT-116 colon
HCT-15 colon = system: HCT-15 colon
HL-60(TB) leukemia = system: HL-60(TB) leukemia
HOP-62 NSCLC = system: HOP-62 NSCLC
MOLT-4 leukemia = system: MOLT-4 leukemia
NCI-H23 lung = system: NCI-H23 lung
NCI-H460 lung = system: NCI-H460 lung
OVCAR-5 ovarian = system: OVCAR-5 ovarian
RPMI-8226 leukemia = system: RPMI-8226 leukemia
RXF 393 renal = system: RXF 393 renal
SF-295 CNS = system: SF-295 CNS
SK-MEL-2 melanoma = system: SK-MEL-2 melanoma
U251 CNS = system: U251 CNS
UACC-62 melanoma = system: UACC-62 melanoma
UO-31 renal = system: UO-31 renal
A498 renal = system: A498 renal
OVCAR-4 ovarian = system: OVCAR-4 ovarian

Cc1c(N(Cc2ccccc2)Cc2ccccc2)nc(S(C)(=O)=O)nc1S(C)(=O)=O gave a TGI (DLD-1 colon) of 3.59 µM, a TGI (DMS 273 small cell lung) of 4.29 µM and a TGI (HCC-2998 colon) of 3.2 µM. For the same compound, the TGI (HCT-116 colon) was 3.02 µM, the TGI (HCT-15 colon) was 6.4 µM and the TGI (HL-60(TB) leukemia) was 4.28 µM. The TGI (HOP-62 NSCLC) was 28 µM, the TGI (MOLT-4 leukemia) was 4.76 µM and the TGI (NCI-H23 lung) was 3.35 µM. It also gave a TGI (NCI-H460 lung) of 22.1 µM, a TGI (OVCAR-5 ovarian) of 19.3 µM and a TGI (RPMI-8226 leukemia) of 7.61 µM. For the same compound, the TGI (RXF 393 renal) was 3.1 µM, the TGI (SF-295 CNS) was 31.5 µM and the TGI (SK-MEL-2 melanoma) was 30.6 µM. The TGI (U251 CNS) was 6.64 µM, the TGI (UACC-62 melanoma) was 3.16 µM and the TGI (UO-31 renal) was 24.7 µM.
Nc1nc2c(c(-c3ccc(F)cc3)n1)COC/C2=C\c1ccc(F)cc1 gave a TGI (A498 renal) greater than 100 µM, a TGI (HCC-2998 colon) greater than 100 µM and a TGI (HCT-15 colon) greater than 100 µM. The TGI (HL-60(TB) leukemia) was greater than 100 µM, the TGI (HOP-62 NSCLC) was greater than 100 µM and the TGI (MOLT-4 leukemia) was greater than 100 µM. The TGI (NCI-H23 lung) was greater than 100 µM, the TGI (NCI-H460 lung) was 34 µM and the TGI (OVCAR-4 ovarian) was greater than 100 µM. It also gave a TGI (OVCAR-5 ovarian) greater than 100 µM, a TGI (RPMI-8226 leukemia) greater than 100 µM and a TGI (RXF 393 renal) greater than 100 µM. For the same compound, the TGI (SF-295 CNS) was greater than 100 µM, the TGI (SK-MEL-2 melanoma) was greater than 100 µM and the TGI (U251 CNS) was 31 µM. It also gave a TGI (UACC-62 melanoma) greater than 100 µM and a TGI (UO-31 renal) of 50 µM.
Work on COc1cc(O)c2c(=O)c(O)c(-c3ccc(O)c(O)c3)oc2c1 yielded a TGI (A498 renal) of 14.9 µM, a TGI (HCC-2998 colon) of 34.1 µM and a TGI (HCT-116 colon) of 45.5 µM. The TGI (HCT-15 colon) was greater than 100 µM, the TGI (HL-60(TB) leukemia) was 12.8 µM and the TGI (HOP-62 NSCLC) was 63.2 µM. For the same compound, the TGI (MOLT-4 leukemia) was greater than 100 µM, the TGI (NCI-H460 lung) was 20.6 µM and the TGI (OVCAR-4 ovarian) was 37.6 µM. For the same compound, the TGI (OVCAR-5 ovarian) was 47.8 µM, the TGI (RPMI-8226 leukemia) was greater than 100 µM and the TGI (SF-295 CNS) was 72.3 µM. It also gave a TGI (U251 CNS) of 24.7 µM, a TGI (UACC-62 melanoma) greater than 100 µM and a TGI (UO-31 renal) of 42.1 µM.
Cn1c(=O)c(C#N)c(O)c2cc3ccccc3nc21 was tested, and the TGI (DLD-1 colon) was greater than 100 µM, the TGI (DMS 273 small cell lung) was greater than 100 µM and the TGI (HCC-2998 colon) was greater than 100 µM. It also gave a TGI (HCT-116 colon) greater than 100 µM, a TGI (HCT-15 colon) greater than 100 µM and a TGI (HL-60(TB) leukemia) greater than 100 µM. The TGI (MOLT-4 leukemia) was greater than 100 µM, the TGI (NCI-H23 lung) was greater than 100 µM and the TGI (NCI-H460 lung) was greater than 100 µM. The TGI (OVCAR-4 ovarian) was greater than 100 µM, the TGI (RPMI-8226 leukemia) was greater than 100 µM and the TGI (RXF 393 renal) was greater than 100 µM. It also gave a TGI (SF-295 CNS) greater than 100 µM, a TGI (SK-MEL-2 melanoma) greater than 100 µM and a TGI (U251 CNS) greater than 100 µM. For the same compound, the TGI (UO-31 renal) was greater than 100 µM.
Nc1cc(O)c2cc(N=Nc3ccc(N=Nc4ccc(N=Nc5ccc6cc(S(=O)(=O)O)cc(S(=O)(=O)O)c6c5)c5ccccc45)c4cc(S(=O)(=O)O)ccc34)c(S(=O)(=O)O)cc2c1 gave a TGI (A498 renal) greater than 100 µM, a TGI (DLD-1 colon) greater than 100 µM and a TGI (DMS 273 small cell lung) greater than 100 µM. For the same compound, the TGI (HCC-2998 colon) was greater than 100 µM, the TGI (HCT-116 colon) was greater than 100 µM and the TGI (HCT-15 colon) was greater than 100 µM. The TGI (HL-60(TB) leukemia) was greater than 100 µM, the TGI (HOP-62 NSCLC) was greater than 100 µM and the TGI (MOLT-4 leukemia) was greater than 100 µM. The TGI (NCI-H23 lung) was greater than 100 µM, the TGI (NCI-H460 lung) was greater than 100 µM and the TGI (OVCAR-4 ovarian) was greater than 100 µM. The TGI (OVCAR-5 ovarian) was greater than 100 µM, the TGI (RPMI-8226 leukemia) was greater than 100 µM and the TGI (RXF 393 renal) was greater than 100 µM. For the same compound, the TGI (SF-295 CNS) was greater than 100 µM, the TGI (SK-MEL-2 melanoma) was greater than 100 µM and the TGI (U251 CNS) was greater than 100 µM. It also gave a TGI (UACC-62 melanoma) greater than 100 µM and a TGI (UO-31 renal) greater than 100 µM.
